PMC3245313, “Helicobacter pylori versus the Host: Remodeling of the Bacterial Outer Membrane Is Required for Survival in the Gastric Mucosa” (PLoS Pathogens, 2011)
Read-outs that look alike come from different tables or passages of the source. Where a SMILES comes first, the peptide text is derived from it. Bridges are numbered along the chain shown (N, C = ends). Where no end group is shown, it is not given here.

Columns and labels:
H. pylori J99 lpxF [1] = tested on: H. pylori J99 lpxF
H. pylori J99 lpxE/F [2] = tested on: H. pylori J99 lpxE/F
H. pylori J99 lpxE [3] = tested on: H. pylori J99 lpxE
H. pylori J99 Wild Type [4] = tested on: H. pylori J99 Wild Type
H. pylori J99 lpxR [5] = tested on: H. pylori J99 lpxR
H. pylori B128 lpxE/F = assay type: cell-based, Helicobacter pylori; conditions: Polymyxin B E-Test strips on TSA with 5% blood, average of three experiments
H. pylori X47 lpxF = assay type: cell-based, Helicobacter pylori; conditions: Polymyxin B E-Test strips on TSA with 5% blood, average of three experiments
[6] = tested on: H. pylori B128 lpxE, lpxE+; assay type: cell-based, Helicobacter pylori; conditions: Polymyxin B E-Test strips on TSA with 5% blood, average of three experiments
H. pylori X47 Wild Type = assay type: cell-based, Helicobacter pylori; conditions: Polymyxin B E-Test strips on TSA with 5% blood, average of three experiments
[7] = tested on: H. pylori J99 lpxF, lpxF+; assay type: cell-based, Helicobacter pylori; conditions: Polymyxin B E-Test strips on TSA with 5% blood, average of three experiments
H. pylori J99 Wild Type [8] = assay type: cell-based, Helicobacter pylori; conditions: Polymyxin B E-Test strips on TSA with 5% blood, average of three experiments
H. pylori J99 lpxE [9] = assay type: cell-based, Helicobacter pylori
H. pylori B128 Wild Type = assay type: cell-based, Helicobacter pylori; conditions: Polymyxin B E-Test strips on TSA with 5% blood, average of three experiments
H. pylori X47 lpxE/F = assay type: cell-based, Helicobacter pylori; conditions: Polymyxin B E-Test strips on TSA with 5% blood, average of three experiments
H. pylori B128 lpxE = assay type: cell-based, Helicobacter pylori; conditions: Polymyxin B E-Test strips on TSA with 5% blood, average of three experiments
H. pylori B128 lpxF = assay type: cell-based, Helicobacter pylori; conditions: Polymyxin B E-Test strips on TSA with 5% blood, average of three experiments
[10] = tested on: H. pylori X47 lpxF, lpxF+; assay type: cell-based, Helicobacter pylori; conditions: Polymyxin B E-Test strips on TSA with 5% blood, average of three experiments
H. pylori J99 lpxE/F [11] = assay type: cell-based, Helicobacter pylori
[12] = tested on: H. pylori wild type strains; conditions: cited from earlier work
Experimental: Resistance to CAMPs is of great importance to all mucosal pathogens. This is especially true for H. pylori whose only known reservoir is the human gastric mucosal surface. H. pylori is highly resistant to the CAMP polymyxin B (PMB) with the minimal inhibitory concentration (MIC) of wild type strains ranging from 250–1000 µg/ml peptide. […] MICs were determined for all strains using PMB Etest strips. H. pylori wild type strain J9 ...

H. pylori X47 lpxE = assay type: cell-based, Helicobacter pylori; conditions: Polymyxin B E-Test strips on TSA with 5% blood, average of three experiments
H. pylori J99 lpxF [13] = assay type: cell-based, Helicobacter pylori
H. pylori J99 lpxR [14] = assay type: cell-based, Helicobacter pylori; conditions: Polymyxin B E-Test strips on TSA with 5% blood, average of three experiments

## GIGDPVTCLKSGAICHPVFCPRRYKQIGTCGLPGTKCCKKP (disulfide 8-37, 15-30, 20-38 (inferred)) [HBD2]
H. pylori J99 lpxF [1]; J99 lpxF, 48 h
  Minimal Inhibitory Concentration (MIC): 12 ± 1 µg/mL
H. pylori J99 lpxE/F [2]; J99 lpxE/F, 48 h
  Minimal Inhibitory Concentration (MIC): 5.0 ± 1.0 µg/mL
H. pylori J99 lpxE [3]; J99 lpxE, 48 h
  Minimal Inhibitory Concentration (MIC): 23 ± 3 µg/mL
H. pylori J99 Wild Type [4]; J99 Wild Type, 48 h
  Minimal Inhibitory Concentration (MIC): >25 µg/mL
H. pylori J99 lpxR [5]; J99 lpxR, 48 h
  Minimal Inhibitory Concentration (MIC): >25 µg/mL

## AKRHHGYKRKFH-NH2 (C-terminus assumed) [P113]
H. pylori J99 lpxF [1]; J99 lpxF, 48 h
  Minimal Inhibitory Concentration (MIC): 178 ± 3 µg/mL
H. pylori J99 lpxE/F [2]; J99 lpxE/F, 48 h
  Minimal Inhibitory Concentration (MIC): 141 ± 14 µg/mL
H. pylori J99 lpxE [3]; J99 lpxE, 48 h
  Minimal Inhibitory Concentration (MIC): 341 ± 14 µg/mL
H. pylori J99 Wild Type [4]; J99 Wild Type, 48 h
  Minimal Inhibitory Concentration (MIC): >400 µg/mL
H. pylori J99 lpxR [5]; J99 lpxR, 48 h
  Minimal Inhibitory Concentration (MIC): >400 µg/mL

## polymyxin B
H. pylori B128 lpxE/F
  Polymyxin MIC: 0.61 ± 0.04 µg/mL
H. pylori X47 lpxF
  Polymyxin MIC: 2.3 ± 0.6 µg/mL
[6]
  Polymyxin MIC: 234.7 ± 37.0 µg/mL
H. pylori X47 Wild Type
  Polymyxin MIC: 768.0 ± 0.0 µg/mL
H. pylori J99 lpxF [1]
  Minimal Inhibitory Concentration (MIC): 3.8 ± 0.3 µg/mL
[7]
  Polymyxin MIC: 512.0 ± 0.0 µg/mL
H. pylori J99 Wild Type [8]
  Polymyxin MIC: 469.3 ± 73.9 µg/mL
H. pylori J99 lpxE [9]; J99 lpxE mutant versus wild type J99, Etest MICs
  fold decrease in resistance (increase in sensitivity) to PMB: 16 fold
H. pylori J99 lpxE [9]; J99 lpxE, Polymyxin B E-Test strips on TSA with 5% blood, average of three experiments
  Polymyxin MIC: 29.3 ± 4.6 µg/mL
H. pylori B128 Wild Type
  Polymyxin MIC: 213.3 ± 37.0 µg/mL
H. pylori X47 lpxE/F
  Polymyxin MIC: 0.55 ± 0.08 µg/mL
H. pylori J99 lpxE/F [2]
  Minimal Inhibitory Concentration (MIC): 0.6 ± 0.1 µg/mL
H. pylori B128 lpxE
  Polymyxin MIC: 26.7 ± 4.6 µg/mL
H. pylori B128 lpxF
  Polymyxin MIC: 1.8 ± 0.3 µg/mL
[10]
  Polymyxin MIC: 682.7 ± 147.8 µg/mL
H. pylori J99 lpxE [3]
  Minimal Inhibitory Concentration (MIC): 22 ± 2 µg/mL
H. pylori J99 lpxE/F [11]; J99 double lpxE/F mutant versus wild type J99, Etest MICs
  fold decrease in resistance (increase in sensitivity) to PMB: 1020 fold
H. pylori J99 lpxE/F [11]; J99 lpxE/F, Polymyxin B E-Test strips on TSA with 5% blood, average of three experiments
  Polymyxin MIC: 0.46 ± 0.03 µg/mL
[12]
  Minimal Inhibitory Concentration (MIC): 250 to 1000 µg/mL
H. pylori X47 lpxE
  Polymyxin MIC: 37.3 ± 9.2 µg/mL
H. pylori J99 Wild Type [4]
  Minimal Inhibitory Concentration (MIC): >250 µg/mL
H. pylori J99 lpxF [13]; J99 lpxF mutant versus wild type J99, Etest MICs
  fold decrease in resistance (increase in sensitivity) to PMB: 360 fold
H. pylori J99 lpxF [13]; J99 lpxF, Polymyxin B E-Test strips on TSA with 5% blood, average of three experiments
  Polymyxin MIC: 1.3 ± 0.3 µg/mL
H. pylori J99 lpxR [14]
  Polymyxin MIC: 512.0 ± 0.0 µg/mL
H. pylori J99 lpxR [14]; listed as PMB
  Polymyxin MIC: 512 ± 0.0 µg/mL
H. pylori J99 lpxR [5]
  Minimal Inhibitory Concentration (MIC): >250 µg/mL

## AKKVFKRLEKLFSKIQNDK [HP2.20]
H. pylori J99 lpxF [1]; J99 lpxF, 48 h
  Minimal Inhibitory Concentration (MIC): 60 ± 0 µg/mL
H. pylori J99 lpxE/F [2]; J99 double lpxE/F mutant versus wild type, broth dilution MICs
  fold decrease in resistance: ≥ 60 fold
H. pylori J99 lpxE/F [2]; J99 lpxE/F, 48 h
  Minimal Inhibitory Concentration (MIC): 18 ± 3 µg/mL
H. pylori J99 lpxE [3]; J99 lpxE, 48 h
  Minimal Inhibitory Concentration (MIC): 583 ± 29 µg/mL
H. pylori J99 Wild Type [4]; J99 Wild Type, 48 h
  Minimal Inhibitory Concentration (MIC): >1250 µg/mL
H. pylori J99 lpxR [5]; J99 lpxR, 48 h
  Minimal Inhibitory Concentration (MIC): >1250 µg/mL

## CC[C@H](C)[C@H](NC(=O)[C@H](CCCCN)NC(=O)[C@H](CCC(=O)O)NC(=O)[C@H](CCCCN)NC(=O)[C@H](CO)NC(=O)[C@H](CCCCN)NC(=O)[C@H](CCCNC(=N)N)NC(=O)[C@H](Cc1ccccc1)NC(=O)[C@H](Cc1ccccc1)NC(=O)[C@H](CC(=O)O)NC(=O)CNC(=O)[C@H](CC(C)C)NC(=O)[C@@H](N)CC(C)C)C(=O)NCC(=O)N[C@@H](CCCCN)C(=O)N[C@@H](CCC(=O)O)C(=O)N[C@@H](Cc1ccccc1)C(=O)N[C@@H](CCCCN)C(=O)N[C@@H](CCCNC(=N)N)C(=O)N[C@H](C(=O)N[C@H](C(=O)N[C@@H](CCC(N)=O)C(=O)N[C@@H](CCCNC(=N)N)C(=O)N[C@H](C(=O)N[C@@H](CCCCN)C(=O)N[C@@H](CC(=O)O)C(=O)N[C@@H](Cc1ccccc1)C(=O)N[C@@H](CC(C)C)C(=O)N[C@@H](CCCNC(=N)N)C(=O)N[C@@H](CC(N)=O)C(=O)N[C@@H](CC(C)C)C(=O)N[C@H](C(=O)N1CCC[C@H]1C(=O)N[C@@H](CCCNC(=N)N)C(=O)N[C@H](C(=O)N[C@@H](CCC(=O)O)C(=O)N[C@@H](CO)C(=O)O)[C@@H](C)O)C(C)C)[C@@H](C)CC)C(C)C)[C@@H](C)CC [LL37]
H. pylori J99 lpxF [1]; J99 lpxF, 48 h
  Minimal Inhibitory Concentration (MIC): 19 ± 2 µg/mL
H. pylori J99 lpxE/F [2]; J99 lpxE/F, 48 h
  Minimal Inhibitory Concentration (MIC): 11 ± 1 µg/mL
H. pylori J99 lpxE [3]; J99 lpxE, 48 h
  Minimal Inhibitory Concentration (MIC): 40 ± 0 µg/mL
H. pylori J99 Wild Type [4]; J99 Wild Type, 48 h
  Minimal Inhibitory Concentration (MIC): 40 ± 5 µg/mL
H. pylori J99 lpxR [5]; J99 lpxR, 48 h
  Minimal Inhibitory Concentration (MIC): 41 ± 6 µg/mL

## CC[C@H](C)[C@@H]1NC(=O)[C@@H]2CSSC[C@@H]3NC(=O)[C@H](Cc4ccccc4)NC(=O)[C@H](C)NC(=O)[C@H](Cc4c[nH]c5ccccc45)NC(=O)[C@H](CC(C)C)NC(=O)[C@H](CCCNC(=N)N)NC(=O)CNC(=O)[C@H](CCC(N)=O)NC(=O)[C@H](Cc4ccc(O)cc4)NC(=O)[C@H]([C@@H](C)CC)NC(=O)[C@H](CSSC[C@H](NC(=O)[C@H](Cc4ccc(O)cc4)NC(=O)[C@@H](N)CSSC[C@@H](C(=O)O)NC3=O)C(=O)N[C@@H](CCCNC(=N)N)C(=O)N[C@@H]([C@@H](C)CC)C(=O)N3CCC[C@H]3C(=O)N[C@@H](C)C(=O)N2)NC(=O)[C@H]([C@@H](C)O)NC(=O)CNC(=O)[C@H](Cc2ccc(O)cc2)NC(=O)[C@H](CCCNC(=N)N)NC(=O)[C@H](CCCNC(=N)N)NC(=O)[C@H](CCC(=O)O)NC(=O)CNC(=O)[C@H](C)NC1=O [HNP2] (H-CYCRIPACIAGERRYGTCIYQGRLWAFCC-OH; disulfide 1-29, 3-18, 8-28 (inferred); N-terminus and C-terminus assumed)
H. pylori J99 lpxF [1]; J99 lpxF, 48 h
  Minimal Inhibitory Concentration (MIC): >25 µg/mL
H. pylori J99 lpxE/F [2]; J99 lpxE/F, 48 h
  Minimal Inhibitory Concentration (MIC): >25 µg/mL
H. pylori J99 lpxE [3]; J99 lpxE, 48 h
  Minimal Inhibitory Concentration (MIC): >25 µg/mL
H. pylori J99 Wild Type [4]; J99 Wild Type, 48 h
  Minimal Inhibitory Concentration (MIC): >25 µg/mL
H. pylori J99 lpxR [5]; J99 lpxR, 48 h
  Minimal Inhibitory Concentration (MIC): >25 µg/mL
